Patent publication US10064830B2, “Treatment and prevention of cardiovascular disease and thrombosis” (The Cleveland Clinic Foundation, priority 2012, dated 2018)
“Also recorded” adds a separate entry of the source.

What was measured:
Peritoneal macrophages = assay: Cholesterol accumulation and foam cell formation in peritoneal macrophages, oil red O staining (Example 4); type: in vivo, C57BL/6J.Apoe−/− male mice; conditions: 1.3% DMB added to 1.3% choline diet
Description: Experiments were conducted during development of embodiments of the present invention to examine the effect of addition of DMB on cholesterol accumulation and foam cell formation. C57BL/6J.Apoe−/− male mice at the time of weaning (4 weeks) were placed on chow diet supplemented with 1.3% choline, 1.3% DMB, both, or neither. Peritoneal macrophages were collected, fixed in 4% paraformaldehyde and stained with oil red 0/hematoxin.

[1] = tested on: peritoneal mouse macrophages; assay: Total cholesterol in peritoneal macrophages by stable isotope dilution LC/MS/MS (Example 5); type: in vivo, C57BL/6J.Apoe−/− male mice; conditions: chow with 1.3% choline, 1.3% DMB, both or neither
Description: Experiments were conducted during development of embodiments of the present invention to determine the effect of DMB on total cholesterol level in peritoneal mouse macrophages (SEE FIG. 7). C57BL/6J.Apoe−/− male mice at the time of weaning (4 weeks) were placed on chow diet supplemented with 1.3% choline, 1.3% DMB, both, or neither. The total cholesterol of cells was quantified by stable isotope dilution LC/MS/MS. Cells number was quantified by protein content in cell lystates.

gut flora [2] = assay: Plasma TMAO by stable isotope dilution LC/MS/MS in the mice of the platelet aggregation study; type: in vivo; conditions: high choline diet +/- antibiotics or DMB
Description: (§1) In this example, mice were placed on either normal chow diet at time of weaning, or a high choline diet. After several weeks, whole blood was removed, and platelets isolated. The ability of a submaximal agonist of platelets, ADP, to trigger platelet aggregation was then determined. In parallel, plasma levels of TMAO were determined by established stable isotope dilution LC/MS/MS analyses. […] This is a clear signal of a pro-thrombotic phenotype in the mice on a high choline diet. In a similar study, the mice on the high choline were also placed on a cocktail of broad spectrum antibiotics (described above and in Wang et al., Nature 2011, April, 472(7341):57-63, incorporated by reference it its entirety for all purposes) to suppress intestinal microflora, and reduce plasma TMAO levels. […] Such drugs (e.g., DMB or antibiotics) are attractive since they should not induce excess bleeding (e.g., like commercial anti-thrombotic drugs like clopidogrel or Warfarin). That is, TMAO only accentuates platelet function, and reducing TMAO levels (like with DMB, antibiotic, or some other drug or approach, be it functional food, probiotic, or prebiotic) would decrease in vivo thrombosis, but not reduce below “normal” function, and thus not increase bleeding risk. […]

platelets = assay: Ex vivo platelet aggregation triggered by ADP, platelets from mice on diets (Example 7, parts 2-4); type: in vivo; conditions: platelets from mice on high choline or TMAO diet +/- antibiotics or DMB
Description: as §1

[3] = Plasma lipoprotein profile of mice on supplemented chow (Example 3); type: in vivo; conditions: 1.3% DMB added to mouse diet
Description: Experiments were conducted during development of embodiments of the present invention to compare plasma levels of (1) cholesterol, (2) triglyceride, low density lipoprotein-cholesterol, and HDL cholesterol in mice fed chow, or chow supplemented with 1.3% choline, 1.3% DMB, or both (SEE FIG. 5).

[4] = tested on: endogenous foam cell formation; assay: Macrophage cholesterol content and plasma TMAO in mice on chow supplemented with choline, TMAO or DMB (Example 1); type: in vivo, C57BL/6J.Apoe−/− mice; conditions: normal chow supplemented with choline, TMAO or DMB vs normal chow control
Description: Male C57BL/6J.Apoe−/− mice (15 week old) were placed on normal chow (control) alone or supplemented in the presence of either choline (1.0%), TMAO (0.12%), or DMB (1.0%). Peritoneal macrophages were recovered from the indicated number of mice at 20 weeks of age and cellular cholesterol content was quantified by stable isotope dilution GC/MS, and normalized to DNA content.
Experiments were conducted during development of embodiments of the present invention to examine the structural specificity of phaophatidylcholine metabolites in promoting a pro-atherogenic macrophage phenotype as monitored by endogenous foam cell formation. C57BL/6J.Apoe−/− mice at time of weaning were placed on either normal chow diet (control) or normal chow supplemented with either choline, TMAO or the choline analog DMB, where the quaternary amine nitrogen of choline is replaced with a carbon (SEE FIG. 2, right). Thus, DMB is structurally identical to choline except there is no C—N bond for potential cleavage and TMA formation by gut flora.

wild-type mice = assay: Carotid artery in vivo thrombosis rates by vital microscopy, wild-type mice (Example 7, parts 6-7); conditions: for in vivo thrombosis rates: diets +/- ABS or DMB for 3 weeks
Description: This example repeats the study immediately above, excepts uses wild-type mice. The results are shown FIG. 14.
Carotid artery in vivo thrombosis rates were determined using vital microscopy on the indicated groups of mice shown in FIG. 15. Mice were on the indicated diets +/− ABS or DMB for 3 weeks.

intestinal microflora = assay: Intestinal microflora-catalyzed generation of trimethylamine from D9-choline in cecum homogenate (Example 6); type: biochemical, Mouse; conditions: D9-choline substrate
Description: Experiments were conducted during development of embodiments of the present invention to examine the effect of DMB on intestinal microflora-catalyzed generation of trimethylamine from choline. Mouse celum was homogenized as a source of intestinal microflora. D9-choline was used as a substrate and the generation of […] was quantificed by stable isotope dilution LC/MS/MS.

gut flora [5] = assay: Plasma TMA and TMAO in mice after 3 weeks on diets +/- ABS or DMB (Example 7, part 1); type: in vivo; conditions: female mice, 3 weeks on diet, chow or 1.0% wt/wt choline
Description: Six week old female mice were placed on the indicated diets +/− shown in FIG. 9, including Chow, CHOW+antibiotics (ABS; which was 0.5 g/L vancomycin, 1 g/L neomycin sulfate, 1 g/L metronidazole, and 1 g/L ampicillin), TMAO, CH (chow supplemented with 1.0% wt/wt choline), CH and ABS, and CH+DMB. Mice were placed on these diets at 6 weeks of age and maintained on the diets for 3 weeks. Plasma was then recovered and both TMA and TMAO were determined by stable isotope dilution LC/MS/MS.

[6] = tested on: C57BL/6J.Apoe−/− male mice; assay: Aortic root lesion plaque, oil red O staining (Example 2); type: in vivo
From the text: C57BL/6J.Apoe−/− male mice at the time of weaning (4 weeks) were placed on chow diet supplemented with 1.3% choline, 1.3% DMB, both, or neither. Aortic root section was stained with oil red 0/hematoxin. The red oil staining area inside the aorta indicates lesion plaque (SEE FIGS. 3 and 4).

[7] = tested on: Atherosclerosis Prone ApoE−/− Mice; assay: Carotid artery in vivo thrombosis rates by vital microscopy, ApoE−/− mice (Example 7, part 5); conditions: diets +/- ABS for 3 weeks
Description: In this example, carotid artery in vivo thrombosis rates were determined using vital microscopy on the indicated groups of mice in FIG. 13. Mice were on the indicated diets +/− ABS for 3 weeks.
These studies extend to in vivo studies what was seen before with ex vivo platelet aggregation studies from mice on the various indicated diets. […] A shorter time indicates faster platelet aggregation (enhanced in vivo thrombosis).

proteus mirabilis = assay: TMA production from choline by proteus mirabilis (FIG. 24); type: cell-based

Structure (SMILES): CC(C)(C)CCO [DMB, 3,3-dimethyl-1-butanol]
- cholesterol accumulation and foam cell formation (Peritoneal macrophages): reversed the high choline diet induced cholesterol accumulation and foam cell formation
- macrophage cholesterol content (total cholesterol of cells) [1]: blocked
- plasma TMAO levels (gut flora [2]): inhibits TMAO formation
- platelet aggregation (response to ADP) (platelets): markedly reduces platelet hyperresponsiveness; also recorded: blocks platelet hyper-responsiveness (aggregation)
- plasma HDL cholesterol [3]: increase in high density lipoproteins
- plasma low density lipoprotein-cholesterol [3]: significant reductions
- plasma total cholesterol [3]: significant reductions
- plasma triglyceride [3]: significant reductions
- macrophage cholesterol content [4]: no increased accumulation of cholesterol in endogenous macrophages
- plasma levels of TMAO [4]: no TMAO increase
- in vivo thrombosis rates (wild-type mice): block the reduction in in vivo thrombosis rates seen on a high choline diet
- TMAO levels (wild-type mice; high choline diet +/- ABS or DMB for 3 weeks): block TMAO levels
- gut flora-mediated catabolism of choline to TMA (intestinal microflora): markedly inhibited
- plasma TMA (gut flora [5]): inhibits TMA and TMAO formation
- plasma TMAO (gut flora [5]): inhibits TMA and TMAO formation
- reduction of aortic plaque formation ([6]; 1.3% DMB added to normal chow diet, apoE−/− mice): ~90%
- increases in atherosclerotic plaque induced by the high choline diet ([6]; addition to chow with 1.3% choline): blocks the diet-induced enhanced artherosclerosis

Structure (SMILES): C[N+](C)(C)[O-] [TMAO, trimethylamine N-oxide, reference compound]
- platelet aggregation (response to ADP) (platelets): promotes enhanced platelet aggregation
- in vivo thrombosis rates (time to cessation of blood flow in the carotid artery) [7]: promotes accelerated in vivo thrombosis rates
- macrophage cholesterol content [4]: increased macrophage cholesterol content
- plasma levels of TMAO [4]: elevated plasma levels of TMAO
- in vivo thrombosis rates (wild-type mice): Enhances In Vivo Thrombosis Rates

Structure (SMILES): C[Si](C)(C)CCO [trimethylsilylethanol, trimethylsilyl ethanol]
- TMA production from choline (proteus mirabilis): serves as an inhibitor of TMA production from choline
